US20200377459A1, “CHARGED ION CHANNEL BLOCKERS AND METHODS FOR USE” (President and Fellows of Harvard College, priority 2015, published 2020)

Tested on: ATF3 expression in dorsal root ganglion
Assay: ATF3 immunofluorescence in dorsal root ganglion (neurotoxicity)
Format: in vivo
Conditions: mice, hindpaw injection CFA+NEE 1%, 20 μl, 8 weeks earlier
Method: Representative picture of ATF3 (dark shading, FIGS. 4A-4C) expression in mice dorsal root ganglion slice exposed 8 weeks earlier to an acute hindpaw injection of CFA+N-ethyl-etidocaine (Compound 21) (1%, 20 μl).
Upon harvesting, the dorsal root ganglia were fixed overnight in 4% para-formaldehyde, washed in PBS and cryoprotected by sequential sucrose immersion (PBS 10-30% sucrose, Overnight). Ganglia were mounted in O.C.T. (Tissue-tek), and serially cut in 20 μm coronal sections with a cryostat. The sections were thaw-mounted on Fisherbrand superfrost microscopy slides and kept at −80° C. On the day of the experiment, sections were thawed at room temperature for 10 min. Sections were washed in PBS for 5 min, blocked for 1 h at room temperature (PBS, 0.1% Triton X-100, 5% BSA) and exposed to the primary antibodies (Overnight, 4° C.), namely rabbit anti-mouse ATF3 (Sigma, # HPA001562). Sections were then washed three times in PBS (5 min), exposed to the secondary antibodies and DAPI (1:2000. Sigma, # D9542) (2 h, dark), washed, coverslipped with Vectashield (Vector Labs) and observed under confocal microscope ([…], LSM-710).
To evaluate if such toxicity occurred with NEE (Compound 21), mice were injected with a combination of CFA+NEE (1%) 8 weeks prior to DRG extraction.

`CCC[N+](CC)(CC)C(CC)C(=O)Nc1c(C)cccc1C` (centres unmarked) [Compound 21, N-ethyl etidocaine] was tested, and the “neurotoxicity: ATF3 expression in DRG” value was “does not induce neurotoxicity” and the “neurotoxicity: ATF3 expression in DRG” value (listed as NEE) was “No ATF3 expression was observed”.
